In PMC10586506 (Drug Metabolism and Disposition, 2023):
Counter-ions that a name gives are not always drawn. Like-named read-outs stand apart in the source and are kept apart here.

Tests used:
[1] = molecular target: T1, human THTR2 (Homo sapiens, UniProt Q9BZV2); assay: THTR2 inhibition in HEK293-LV cells overexpressing the transporter; type: cell-based; settings: for inhibition at 10 µM / inhibition at 100 µM: read-out: THTR2 (%) percent inhibition of transporter activity
T1 sequence (Q9BZV2 1-496): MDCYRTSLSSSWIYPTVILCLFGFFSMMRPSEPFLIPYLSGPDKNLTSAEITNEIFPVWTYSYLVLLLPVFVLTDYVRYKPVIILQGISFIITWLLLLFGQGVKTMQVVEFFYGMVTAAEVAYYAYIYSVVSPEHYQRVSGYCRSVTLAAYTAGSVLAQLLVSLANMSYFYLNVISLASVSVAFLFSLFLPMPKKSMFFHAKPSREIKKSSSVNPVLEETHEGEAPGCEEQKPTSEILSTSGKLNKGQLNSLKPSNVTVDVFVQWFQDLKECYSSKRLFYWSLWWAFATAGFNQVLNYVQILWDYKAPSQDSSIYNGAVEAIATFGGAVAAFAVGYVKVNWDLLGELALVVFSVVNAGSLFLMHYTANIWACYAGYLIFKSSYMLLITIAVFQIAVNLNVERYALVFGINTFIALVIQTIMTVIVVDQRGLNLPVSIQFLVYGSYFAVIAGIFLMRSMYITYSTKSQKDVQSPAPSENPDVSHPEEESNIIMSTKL

[2] = system: human OCT1; settings: ref Nguyen et al., 2021, cited from earlier work; for IC50: read-out: IC50 OCT1, extract normalized to berberine
[3] = molecular target: T2, human OCT3 (Homo sapiens, UniProt O75751); assay: OCT3 inhibition in HEK293-LV cells overexpressing the transporter; type: cell-based; settings: for inhibition at 10 µM / inhibition at 100 µM: read-out: OCT3 (%) percent inhibition of transporter activity
T2 sequence (O75751 1-556): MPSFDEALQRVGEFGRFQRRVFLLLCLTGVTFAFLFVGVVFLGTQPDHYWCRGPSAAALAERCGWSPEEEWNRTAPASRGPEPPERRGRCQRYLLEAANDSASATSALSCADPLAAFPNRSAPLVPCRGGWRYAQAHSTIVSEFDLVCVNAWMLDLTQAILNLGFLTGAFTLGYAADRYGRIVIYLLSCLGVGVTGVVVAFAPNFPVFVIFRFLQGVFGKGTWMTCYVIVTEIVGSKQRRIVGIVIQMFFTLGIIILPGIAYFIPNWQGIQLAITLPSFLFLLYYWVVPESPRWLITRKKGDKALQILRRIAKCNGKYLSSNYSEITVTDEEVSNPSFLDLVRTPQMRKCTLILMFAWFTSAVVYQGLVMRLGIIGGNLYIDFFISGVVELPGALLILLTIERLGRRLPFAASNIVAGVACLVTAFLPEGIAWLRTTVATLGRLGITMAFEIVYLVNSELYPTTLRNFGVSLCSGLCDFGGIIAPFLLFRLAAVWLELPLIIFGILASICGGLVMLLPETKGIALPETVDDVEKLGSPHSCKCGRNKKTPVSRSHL

[4] = molecular target: T3, human PMAT (Homo sapiens, UniProt Q7RTT9); assay: PMAT inhibition in HEK293-LV cells overexpressing the transporter; type: cell-based; settings: for inhibition at 10 µM / inhibition at 100 µM: read-out: PMAT (%) percent inhibition of transporter activity
T3 sequence (Q7RTT9 1-530): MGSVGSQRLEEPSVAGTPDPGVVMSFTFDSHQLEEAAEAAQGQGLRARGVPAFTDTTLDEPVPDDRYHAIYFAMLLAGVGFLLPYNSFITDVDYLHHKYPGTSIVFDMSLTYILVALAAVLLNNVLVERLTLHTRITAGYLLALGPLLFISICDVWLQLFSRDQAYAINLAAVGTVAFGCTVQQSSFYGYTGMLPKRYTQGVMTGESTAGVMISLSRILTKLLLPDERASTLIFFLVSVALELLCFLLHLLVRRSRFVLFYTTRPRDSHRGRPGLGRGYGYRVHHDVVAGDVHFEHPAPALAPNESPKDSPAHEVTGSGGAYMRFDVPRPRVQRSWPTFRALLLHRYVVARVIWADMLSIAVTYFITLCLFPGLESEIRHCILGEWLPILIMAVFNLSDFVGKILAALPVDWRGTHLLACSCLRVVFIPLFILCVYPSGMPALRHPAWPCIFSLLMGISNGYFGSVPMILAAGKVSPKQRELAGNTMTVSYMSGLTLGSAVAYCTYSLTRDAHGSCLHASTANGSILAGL

[5] = Oral metformin/oral inhibitor pharmacokinetic study in mice; settings: for decrease in geometric mean metformin Cmax relative to vehicle: oral metformin 10 mg/kg with oral test article; for effect on metformin pharmacokinetics: oral metformin with oral test article
[6] = humans, single 2.7 g dose of goldenseal; ref Gupta et al., 2015; cited from earlier work
[7] = humans; ref Nguyen et al., 2021; cited from earlier work
[8] = system: Caco-2 cell monolayers; settings: cited from earlier work

| SMILES | inhibition of THTR2 (in words) [1] | inhibition at 10 µM [1] | inhibition at 100 µM [1] | inhibition of OCT1 (in words) [2] | inhibition of OCT3 (in words) [3] | inhibition at 10 µM [3] | inhibition at 100 µM [3] | inhibition of PMAT (in words) [4] | inhibition at 10 µM [4] | inhibition at 100 µM [4] | decrease in geometric mean metformin Cmax relative to vehicle [5] | effect on metformin pharmacokinetics [5] | IC50 [2] | Cmax [6] | further results |
| --- | --- | --- | --- | --- | --- | --- | --- | --- | --- | --- | --- | --- | --- | --- | --- |
| CN1CCc2cc3c(cc2C1O)OCO3 (stereo not drawn) [Hydrastinine, Hydrastinine chloride monohydrate] | did not inhibit | 2% | 19% | did not inhibit | did not inhibit | -5% | -3% | did not inhibit | 11% | 43% |  |  |  |  |  |
| COc1ccc2c(c1OC)C(=O)O[C@@H]2[C@H]1c2cc3c(cc2CCN1C)OCO3 [(–)-β-hydrastine, (–)-β-Hydrastine] |  | 7% | -4% | only inhibited OCT1 |  | 3% | 24% |  | -9% | 37% | no effect | no effect | 6.6 µM | 1.75 nM |  |
| COc1ccc2cc3[n+](cc2c1OC)CCc1cc2c(cc1-3)OCO2 [Berberine, Berberine chloride hydrate] | inhibited | -2% | 43% | inhibited | inhibited | 55% | 95% | inhibited | 8% | 71% | no effect | no effect | 19 µM | 470 nM | estimated intestinal luminal inhibitor concentration [7]: 354 µM; IC50 of berberine alone relative to goldenseal extract ([3]; across OCT3, PMAT and THTR2, fold higher): 2.8- to 7.4 fold |
| CN(C)C(=N)N=C(N)N [metformin, Metformin hydrochloride salt] |  |  |  |  |  |  |  |  |  |  |  |  |  |  | percent contribution of OCT1 to metformin uptake ([8]; ref Han et al., 2015): 25%; percent contribution of PMAT to metformin uptake ([8]; ref Han et al., 2015): 20%; percent contribution of SERT to metformin uptake ([8]; ref Han et al., 2015): 20%; percent contribution of choline transporter to metformin uptake ([8]; ref Han et al., 2015): 15%; percent contribution of passive diffusion to metformin uptake ([8]; ref Han et al., 2015): 20%; percent contribution of OCT3 to metformin uptake ([8]; ref Shirasaka et al., 2022): 10%; percent contribution of PMAT to metformin uptake ([8]; ref Shirasaka et al., 2022): 10%; percent contribution of SERT to metformin uptake ([8]; ref Shirasaka et al., 2022): 2%; percent contribution of THTR2 to metformin uptake ([8]; ref Shirasaka et al., 2022): 22%; percent contribution of other (unidentified) transporters to metformin uptake ([8]; ref Shirasaka et al., 2022): 1%; percent contribution of passive diffusion to metformin uptake ([8]; ref Shirasaka et al., 2022): 55% |
